This note sets out measurements from patent publication US11950594B2, “Methods and compositions for inhibiting formation of biofilms” (INSTITUTE OF MICROBIOLOGY, CHINESE ACADEMY OF SCIENCES, priority 2019, dated 2024).

Structures are written as SMILES.

One series deals with pslA::lacZ. Description: pslA::lacZ transcription fusion (β-galactosidase activity). The class given is cell-based, Pseudomonas aeruginosa. Conditions: FIG. 5. The method, then: 1% inoculation amount of overnight cultured Pseudomonas aeruginosa (pslA::lacZ mutant strain) were respectively inoculated in Jensen media with and without coumarin-chalcone compounds C1-C12, and incubated at 37° C. until OD600 reached to 0.5. Bacteria from 1.5 ml culture aliquots were resuspended in 200 μl Z-buffer and frozen/thawed three times to lyses bacteria. Cell lysates were assayed for both β-galactosidase activities as well as for total proteins by BCA assay (Pierce, USA). All β-galactosidase activity units were normalized by total protein per ml aliquot.
The units of β-galactosidase activity may be determined according to Equation (1) as follows: Miller units=1000×(OD420−1.7×OD550)/(t×V×OD600) (1) where t denotes a time (unit: min), V denotes the volume (unit: mL).
About 500 bp of DNA fragments upstream of ATG start codon of pslA gene were cloned into a polyclonal site of mini-CTX lacZ vector (note that the selected promoter fragment cannot affect the frameshift mutation). A recombinant plasmid (e.g., pTH2) was transferred into Escherichia coli S17-1λ pir. Then activated PAO1 was inoculated into 5 mL of LBNS medium, and S17-1/pTH2 strain was inoculated into 5 mL of LB medium with tetracycline (Tet) ([…]), and both cultured overnight at 37° C. with 200 rpm. […]

In series [1] the test system is c-di-GMP (PAO1/pCdrA::gfp (ASV)). The series can be described thus: Intracellular c-di-GMP, indirect, pCdrA::gfp reporter. Format: cell-based, Pseudomonas aeruginosa. Conditions: FIG. 6. An excerpt: (§1) The intracellular c-di-GMP may control the conversion of bacterial lifestyle between plankton and biofilm. In order to analyze an effect of the coumarin-chalcone compound C9 on a concentration of the intracellular c-di-GMP, direct and indirect methods were used to measure the level of c-di-GMP in Pseudomonas aeruginosa.
Since the transcription and expression of the extracellular protein CdrA was related to the intracellular concentration of cyclic diguanylic acid (c-di-GMP), PAO1/pCdrA::gfp^s (ASV) was used to analyze c-di-GMP level indirectly.

Series [2] is described as follows: Stability at different pH, UV-Vis spectral analysis. Particulars: UV absorption, pH range of 3.4 to 8.4. The class given is physicochemical. The procedure:
UV-Vis spectral analysis was used to study the stability of the coumarin-chalcone compound C9 at a pH range of 3.4 to 8.4. […] After reaching pH=2, KOH (25 mM) was added slowly until the pH reached 12. In this way, a graph of a relationship between the pH and the volume of KOH added was plotted to find an equivalent point and thus the pKa.
In the embodiment, the stability of the coumarin-chalcone compound C9 was studied. FIGS. 10A to 10C are schematic diagrams illustrating the stability of a coumarin-chalcone compound C9. […] The UV absorption spectroscopy in the pH range of 3.4 to 8.4 further supported the stability of the coumarin-chalcone compound C9. First, HCl (25 mM) was continually added to the coumarin-chalcone compound C9 (initial pH=6.9) until the pH reached 3.4 (FIG. 10B), resulting in an increase in the strength of an absorption band at 330 nm. […] The stability of the coumarin-chalcone compound C9 indicated a great potential to be an anti-QS and anti-biofilm drug.

The subject of series [3] is Pseudomonas aeruginosa biofilm. Description: MBEC of antibiotics, Calgary biofilm device. Format: cell-based. Conditions: treated with C9 5 mM, versus untreated group. The procedure:
MIC and MBEC values of a biofilm formed on a peg of a […] biofilm device (CGM and CBD) treated with the coumarin-chalcone compound C9 were measured according to methods (Innovotech) in MBECTM high throughput experimental operation manual. Biofilm treated with the coumarin-chalcone compound C9 (5 mM) was cultured in an antibiotic-containing medium in a 96-well plate for 24 h, and the MIC value was obtained by measuring the OD600 of planktonic cells of the above samples. To determine the MBEC value, the biofilm treated with the coumarin-chalcone compound C9 (5 mM) was cultured in an antibiotic-containing medium in a 96-well plate for 24 h, then the biofilm was ultrasonically crushed and subsequently incubated at 37° C. for another 24 hours. Biomass of newly formed biofilms was recorded to indicate the corresponding MBEC value.

Another series relates to intracellular c-di-GMP. Description: Intracellular c-di-GMP, direct, LC-MS/MS quantification. Particulars: FIG. 7. The class given is cell-based, Pseudomonas aeruginosa.
Source text: as §1
C-di-GMP was directly extracted from PAO1 strain grown with or without the coumarin-chalcone compound C9. The intracellular c-di-GMP was directly measured by LC-MS/MS quantification.

As to `COc1cccc(/C=C/C(=O)c2cc3ccccc3oc2=O)c1` [Compound C9], the “production of Psl at the transcription level (pslA::lacZ)” value with pslA::lacZ is listed as “affected the production of Psl at the transcription level”. The “fluorescence intensity of PAO1/pCdrA::gfp (ASV)” value in series [1] was “significantly reduced”. Further, the “stability at different pH conditions” value in series [2] is “stable at different pH conditions”. For the same compound, in series [3], the “MBEC of a biofilm against ciprofloxacin” value is recorded as “significantly lower” and the “MBEC of a biofilm against tobramycin” value is given as “significantly lower”. Moreover, the “reduction on the c-di-GMP concentration” value in the series on intracellular c-di-GMP was 2 fold.
